# Legend:
# [1] = Benzoic acid hydroxylation assay; details: benzoic acid 1 mM, H2O2 6 mM, FeCl3 30 μM, chelator 30 μM, pH 7.4, up to 81 h
# Excerpt: Benzoic acid is a hydroxyl radical scavenger and reacts with hydroxyl radical to give 2-hydroxy, 3-hydroxy and 4-hydroxybenzoic acids. The benzoic acid hydroxylation assay is a chemical assay designed to detect damage caused by hydroxyl radical (Dean and Nicholson, Free Radical Research 1994, vol 20, 83-101). For example, deferiprone suppresses the formation of hydroxybenzoic acids in the presence of iron salts and hydrogen peroxide, while EDTA and iron salts allow such hydroxylation reactions to take place.
# This screening assay involves the use of iron salt, benzoic acid, hydrogen peroxide and the chelator and measures the ability of the chelator to inhibit the formation of hydroxybenzoate as an indicator to prevent hydroxyl radical formation in living system.
# Briefly, this procedure is based on the ability of hydroxyl radicals to hydroxylate benzoate to give 2-, 3- and 4-hydroxylated benzoic acid products. Benzoic acid (1 mM) is incubated over time up to 81 h at room temperature in the dark in 10 mM phosphate buffer (pH 7.4) with 6 mM hydrogen peroxide, ferric chloride (30 μM) and the Fe chelator (30 μM). HPLC is the method of choice used to monitor and quantify the amount of 2-, 3- and 4-hydroxylated products formed over time in the reaction mixture, and can be verified against authentic benzoic acid and its hydroxylated products via their respective retention times and areas under curve. In addition, several controls are used: (i) a control without added Fe stock solution and Fe chelator; (ii) a control without added Fe chelator; (iii) EDTA as positive control; and (iv) deferiprone as negative control. The Fe-EDTA system is a hydroxyl radical generator and is known to promote hydroxylation of benzoic acid.
# [2] = Stoichiometry of Fe-complexes by Job's method; assay type: physicochemical; details: 0.1 M MOPS pH 7.4, absorbance at 458 nm
# Description: In a typical experiment Fe-Apo7053 complex solutions were prepared by mixing a stock solution of Fe^2+ (atomic absorption standard, 989 μg/mL in 1 wt % HCl, Aldrich) and a stock solution of Apo7053 (7.88×10^−3 M in 0.1 M MOPS, pH 7.4). Twelve sample solutions were prepared. While the sum of the total iron concentration ([iron]total) and the total ligand concentration ([L]total) in each of the 12 sample solutions were kept constant (8.00×10^−4 M), the molar fraction of the ligand, α (α=[L]total/([L]total+[iron]total)), for the 12 sample solutions were different, and were prepared as 0.0, 0.1, 0.2, 0.3, 0.4, 0.5, 0.6, 0.7, 0.75, 0.8, 0.9 and 1.0, respectively. The total volume for each of the 12 sample solutions was 5 mL, using MOPS (0.1 M, pH 7.4) as the solvent. The pH of the 12 solutions were adjusted to pH 7.4 with NaOH. The sample solutions were vortexed at rt for 2.5 h, and then stayed at rt overnight. The sample solutions were centrifuged at 4000 rpm for 15 min. The UV-Vis spectrum was recorded at 22° C. for each of the 12 solutions.
# A Job's plot was created with the absorbance at 458 nm as the y-axis and α as the x-axis. A maximum absorbance was found at α=0.75, which corresponds to an iron:ligand ratio of 1:3 in the complexes.
# [3] = system: human neuroblastoma MC-65 cells; experiment: cells
# Method in brief: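 MC-65 cells (conditional Aβ fusion-protein expression, TET-repressed) were washed free of TET and FBS, then exposed to compound ~48 h in serum-free medium without or with 1 μg/mL TET.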
# [4] = system: SH-SY5Y human neuroblastoma cells
# Method in brief: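 SH-SY5Y cells were treated with a range of compound concentrations, with or without 50 μM H2O2, in serum-free medium for 16–22 h. Viability was measured by MTT and expressed relative to cells receiving neither H2O2 nor compound. Runs without H2O2 assessed cytotoxicity.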
smiles,measurement,setting,value
"Cc1c(O)c(=O)c(C(N(C)C)C(F)(F)F)cn1C (centres unmarked) [Apo7053, 5-[1-(dimethylamino)-2,2,2-trifluoroethyl]-3-hydroxy-1,2-dimethylpyridin-4(1H)-one]",hydroxylation of benzoic acid by Fe chelate,[1],do not promote the hydroxylation of benzoic acid
same,molar fraction of ligand α at maximum absorbance (Job's plot),[2],0.75
same,EC100,"[3]; Homo sapiens, MC65, 48 h, read-out: EC100 (maximum effective concentration)",10 µM
same,minimal effective concentration,"[3]; Homo sapiens, MC65, 48 h, read-out: TH (threshold protective concentration)",0.1 µM
same,CC2 (cytotoxic concentration),"[3]; MC-65, cultured without tetracycline, viability below 80%",20 µM
same,CC1 (cytotoxic concentration),"[3]; MC-65, presence of TET, viability below 80%",40 µM
same,CC2 (cytotoxic concentration),"[4]; H2O2-treated cells, viability below 80%",>640 µM
same,CC1 (cytotoxic concentration),"[4]; absence of H2O2, viability below 80%",2.2 µM

# Reference: US9938240B2, “Fluorinated derivatives of 3-hydroxypyridin-4-ones” (Apotex Technologies Inc., priority 2009, dated 2018)
